Data on one compound can be found in ChEMBL document CHEMBL4610061, “Identification of novel GPR81 agonist lead series for target biology evaluation” (Bioorg Med Chem Lett, 2020).

Series [1] in a line: Distribution coefficient, logD of compound at pH 7.4. Format: physicochemical. The note with it: octanol/water.
The target in series [2] is T1, Protein Gpr81 (Rattus norvegicus) (UniProt G3V906).
T1 sequence (whole entry): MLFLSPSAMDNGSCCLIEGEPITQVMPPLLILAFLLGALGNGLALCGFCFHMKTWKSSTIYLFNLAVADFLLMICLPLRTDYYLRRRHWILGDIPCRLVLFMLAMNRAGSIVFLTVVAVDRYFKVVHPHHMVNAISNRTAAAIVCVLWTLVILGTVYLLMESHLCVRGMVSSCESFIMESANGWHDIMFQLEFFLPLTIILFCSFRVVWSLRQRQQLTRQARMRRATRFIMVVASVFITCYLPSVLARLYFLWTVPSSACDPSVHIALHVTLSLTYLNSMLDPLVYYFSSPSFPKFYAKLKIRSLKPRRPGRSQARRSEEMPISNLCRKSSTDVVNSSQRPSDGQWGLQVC
The series is described as follows: Agonist activity at rat GPR81 overexpressed in HEK293 cells by [35S]GTPgammaS binding assay. Format: cell-based. (In general: GTPγS is a poorly hydrolysed GTP analogue; its binding reports G protein activation.)

For series [3], the target named is Hydroxycarboxylic acid receptor 1 (Homo sapiens, UniProt Q9BXC0). The series is described as follows: Agonist activity at human GPR81 overexpressed in CHO cells assessed as inhibition of forskolin-stimulated cAMP production. Format: functional, cell-based. A general note: cAMP levels reflect the balance of adenylyl cyclase and phosphodiesterase activity.
Chain of Hydroxycarboxylic acid receptor 1 (Q9BXC0 whole entry): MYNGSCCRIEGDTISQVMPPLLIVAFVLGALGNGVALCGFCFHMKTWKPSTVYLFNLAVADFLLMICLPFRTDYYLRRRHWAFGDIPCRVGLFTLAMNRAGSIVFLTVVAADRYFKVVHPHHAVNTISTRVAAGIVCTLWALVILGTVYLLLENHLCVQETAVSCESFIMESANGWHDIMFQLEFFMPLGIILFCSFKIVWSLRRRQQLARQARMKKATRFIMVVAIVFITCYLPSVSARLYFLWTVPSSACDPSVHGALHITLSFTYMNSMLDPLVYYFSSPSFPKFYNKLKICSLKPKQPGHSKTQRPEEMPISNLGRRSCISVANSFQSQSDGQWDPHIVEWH
Series [4] can be described thus: Solubility of compound. Format: physicochemical.
Series [5] has as its target Growth hormone secretagogue receptor type 1 (Homo sapiens, UniProt Q92847). The series is described as follows: Displacement of [125I]-ghrelin from human GHS-R1a stably expressed in HEK cell membrane measured after 60 mins by gamma counter method. Format: cell membranes. On the technique in general: Loss of bound radioactivity is the signal in a displacement assay; it reports binding, not function.

Series [6] deals with Hydroxycarboxylic acid receptor 2 (Homo sapiens, UniProt Q8TDS4). Kind of series: Agonist activity at human GPR109A receptor.
Chain of Hydroxycarboxylic acid receptor 2 (Q8TDS4 whole entry): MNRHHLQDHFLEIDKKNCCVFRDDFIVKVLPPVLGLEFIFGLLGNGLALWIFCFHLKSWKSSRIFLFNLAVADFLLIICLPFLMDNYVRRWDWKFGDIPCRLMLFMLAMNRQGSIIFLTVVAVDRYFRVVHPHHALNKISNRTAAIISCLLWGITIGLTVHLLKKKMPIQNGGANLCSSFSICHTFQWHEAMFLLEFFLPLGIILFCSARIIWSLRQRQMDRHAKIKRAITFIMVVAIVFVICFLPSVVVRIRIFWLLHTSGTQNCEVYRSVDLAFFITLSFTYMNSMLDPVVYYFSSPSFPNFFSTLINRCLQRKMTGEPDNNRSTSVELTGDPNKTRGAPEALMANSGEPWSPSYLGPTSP

≈ marks a conversion by molar mass, not a printed value. Calls of active or inactive are those of the source. No cut-off for these calls is given here.

Chain of Growth hormone secretagogue receptor type 1 (Q92847 whole entry): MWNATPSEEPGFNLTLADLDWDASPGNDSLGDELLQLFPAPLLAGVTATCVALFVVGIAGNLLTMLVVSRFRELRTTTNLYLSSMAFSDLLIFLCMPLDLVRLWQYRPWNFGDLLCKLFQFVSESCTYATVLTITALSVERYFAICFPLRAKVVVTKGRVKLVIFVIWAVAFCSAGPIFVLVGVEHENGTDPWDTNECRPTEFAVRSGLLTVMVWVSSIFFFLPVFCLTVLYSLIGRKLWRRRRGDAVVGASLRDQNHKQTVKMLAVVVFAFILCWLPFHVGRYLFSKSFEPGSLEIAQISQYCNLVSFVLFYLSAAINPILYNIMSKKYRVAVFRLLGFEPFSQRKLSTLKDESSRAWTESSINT

By logD is commonly meant the decadic logarithm of the distribution of all forms, ionised or not, between an organic phase and buffer at a given pH. A high value points to higher lipophilicity. The EC50 is the concentration at which the effect is half-maximal. The solubility is the dissolved amount per volume that the medium holds. The low end stands for little dissolved substance, the high end for much dissolved substance. Usually IC50 stands for the concentration at which inhibition is half-maximal. In turn, `CCOc1cc(Cl)c(C(=O)NC(=O)Nc2nc3ccc(S(=O)(=O)C4CCN(C)CC4)cc3s2)cc1-n1cccn1` showed a logD in series [1] of 3. The outcome in series [2] was Active. Also, the EC50 in series [3] was found to be 23 nM; in series [6] it was 123 nM. The same compound had a solubility in series [4] of 0.2 µM (≈ 0.121 µg/mL). For the same compound, the IC50 in series [5] was 8 nM.
